pIC50: −log10 of the molar value.
Experiments:
P. falciparum histones = assay: Histone acetylation state in P. falciparum (14C acetate labeling, AUT gel); format: cell-based; settings: infected red blood cells, 14C sodium acetate, 2 hours, FIG. 2
Experimental: (§1) Acid urea triton (AUT) polyacrylamide gels were performed according to the methods of Alfageme et al (1974) J. Biol. Chem. 249, 3729, with modifications as described in Lennox and Cohen (Methods in Enzymology, 170, 532-549). For optimal resolution of HeLa cell and Plasmodium falciparum histones the separation gel contained 7.5M urea, 12% acrylamide, 0.38% Triton® X 100, 0.08% bis acrylamide, and 0.87M acetic acid. The loading gels contained 7.5M urea, 0.37% Triton X 100, 6% acrylamide, 0.04% bis acrylamide and 0.87M acetic acid. Gels were run in 1M acetic acid. Gels were pre-electrophoresed at 350V for 1 hour and run at 450V for 3.5 hours. Gels were either stained with Coomassie Brilliant Blue R in 7% acetic acid, 20% methanol and then destained in 7% acetic acid and 20% methanol, or treated with Enlightening (from New England Nuclear), dried and radiolabel detected by fluorography.
Approximately 1×10^9 P. falciparum infected red blood cells (about 60% parasitized) were resuspended in 10 ml of RPMI 1640 containing various concentrations of test compounds and 250 μCi ^14C sodium acetate and incubated at 37° C. for 2 hours. The cells were then washed 3 time with PBS and histones were prepared as described below.
Histones were prepared according to the method of Cary et al (1994) Parasitology Research, 80, 255-258. […]

HeLa cell histones = assay: Histone acetylation state in HeLa cells (AUT gel electrophoresis); format: cell-based, human; settings: HeLa cells treated 4 hrs, FIG. 1, relative to untreated cells
Experimental: About 2×10^7 HeLa cells growing at 37 C were treated with various compounds in the standard tissue culture medium (MEM containing 10% fetal calf serum) for 4 hrs. Cells were then removed from the flask by scraping in PBS in a total volume of about 10 mls. The cells were washed twice in PBS and resuspended in about 3 mls lysis buffer (Lysis buffer; 0.45% Nonidet® P-40, 10 mM tris, 10 mM NaCl, 5 mM MgCl, 0.1 mM EGTA, 0.1 mM PMSF). The suspension was mixed by vortexing for 10 seconds, incubated on ice for 15 minutes and nuclei were pelleted by centrifugation through a 1 ml cushion of 30% sucrose in lysis buffer at 1300×g for 10 minutes. The supernatant was discarded and the nuclei were then resuspended in 1.0 ml water. H2SO4 was added to a final concentration of 0.4M and the nuclear suspension was incubated on ice for 30 min. and then pelleted by centrifugation at 13,000×g for 10 minutes. The pellets were discarded, and ten volumes of ice cold acetone was added to the supernatant proteins and left overnight at −20° C. to precipitate soluble proteins. These proteins (predominantly histones) were pelleted by centrifugation at 10,000×g for 15 minutes at 4° C. and resuspended in AUT sample buffer (Sample buffer: 0.9M acetic acid, 0.02% w/v methyl green) in preparation for gel electrophoresis.
as §1, with “Gels were run in 1M acetic acid. Gels were pre-electrophoresed at 350V for 1 hour and run at 450V for 3.5 hours.” left out

[1] = target: histone deacetylase (E. tenella lysate); assay: Competitive binding assay with 3H-N-desmethoxyapicidin, E. tenella S100 lysate; settings: 3H-N-desmethoxyapicidin ligand
Experimental: E. tenella oocysts. Approximately 2×10^9 E. tenella oocysts are suspended in 5 ml of PBS/0.1 mM PMSF, 4 mls of an equal mixture (vol/vol) of 4.0 and 1.0 mm glass beads is added. The glass bead-oocyst mixture is then shaken for 20 minutes to cause disruption of the oocysts. The efficiency of breakage is checked microscopically. The resulting homogenate is separated from the glass beads and centrifuged at 3000×g for 10 min. The supernatant is then subjected to an additional centrifugation at 100,000 g for 1 hr. The pellet is discarded and the supernatant, referred to as the E. tenella S100 fraction, is retained for binding assays. After estimating the protein concentration, the supernatant (S100) is aliquoted and frozen at −80 C.
(§2) Each assay tube contains a final volume of 1 ml with 1.3 ng/ml of ^3H-N-desmethoxyapicidin, 150-200 μg of the appropriate S100 supernatant and concentrations of potential HDA inhibitors from 0.001-10 μg/ml.
(§3) (i) labeled substrate. […]
(§4) Stock solutions of potential HDA inhibitors (ii) are diluted into 50 mM HEPES/Triton® buffer to achieve a final concentration of test compound in the range of 0.001-10 μM. ^3H-N-desmethoxyapicidin is added to a final concentration of 1.3 ng/ml. […] The filter is then dried and counted in scintillant.

P. falciparum = assay: In vitro antiparasitic activity against P. falciparum; format: cell-based
Source text: (2) Generally following the procedure described in Desjardins et al, “Quantitative Assessment of Antimalarial Activity In Vitro by a Semiautomated Microdilution Technique” Antimicrobial Agents and Chemotherapy 1979, 16:710-718.

[2] = system: histone deacetylase (chicken liver lysate); assay: Competitive binding assay with 3H-N-desmethoxyapicidin, chick liver S100 lysate; settings: 3H-N-desmethoxyapicidin ligand
Experimental: Chick Liver. Livers from 3-5 three week old chickens are collected, rinsed in ice cold phosphate buffered saline (pH 7.4), diced into small pieces and rinsed again 3-4 times with ice cold 50 mM N-2-hydroxyethylpiperazine-N′-2-ethanesulfonic acid (HEPES) (pH 7.4) containing 0.1 mM phenylmethanesulfonyl fluoride (PMSF). The tissue is then resuspended in HEPES buffer, homogenized in a polytron homogenizer and centrifuged at 3000×g for 10 min. The supernatant is then subjected to an additional 100,000 g centrifugation for 1 hour. The pellet and the floating layer of lipid are discarded and the supernatant, referred to as the chick liver S100 fraction, is retained for binding assays. After estimating the protein concentration, the supernatant (S100) is aliquoted and frozen at −80 C.
as §2, §3, §4

E. tenella = assay: In vitro antiparasitic activity against E. tenella; format: cell-based, Eimeria tenella
Source text: (1) Generally following the procedure described in Crane, Schmatz, Stevens, Habbersett and Murray. Eimeria tenella: in vitro development in irradiated bovine kidney cells.(1984) Parasitology 88: 521-530.

[3] = system: histone deacetylase (E. tenella extract); assay: Histone deacetylase inhibition assay (Assay 1), E. tenella extract; format: biochemical, Eimeria tenella
Experimental: (§5) The standard assay contained in a total volume of 40 μL: 400 nmol HEPES-sodium, pH 7.4, 100 pmol of the substrate [AcGly-Ala-Lys(ε-^14C-Ac)-Arg-His-Arg-Lys(ε-^14C-Ac)-ValNH2] (see Kervabon et al (1979) FEBS Letters 106: 93-96) having a specific activity of approx. 114 mCi/mmol, and a source of histone deacetylase (HDAase) activity. The amount of HDAase added was chosen such that ≦20% of the substrate was consumed during the assay. The reaction was initiated by enzyme addition and allowed to proceed for 60 min at 41°. At 60 min, the reaction was terminated by the addition of a 50% slurry of Amberlite® AG 50W×4 cation exchange resin, sodium form (200-400 mesh) in 25 mM sodium acetate buffer, pH 4.2 (200 μL). The resin binds both remaining substrate and the (partially) deacetylated peptidyl products. The quenched reaction was then incubated for at least 30 min at 25° with occasional mixing, diluted with additional 25 mM sodium acetate buffer, pH 4.2 (760 μL; final volume 1000 μL), incubated for a minimum of an additional 30 min at 25° with occasional mixing, and then centrifuged at 10,000×g for 1 min. An aliquot of the supernatant (800 μL) containing the enzymatically released ^14C-acetate was removed, mixed with Aquasol 2 liquid scintillation counter (LSC) cocktail (10 mL), and counted in a Beckman model LS-5801 LSC. […]

[4] = system: histone deacetylase (chicken liver extracts); assay: Histone deacetylase inhibition assay (Assay 1), chicken liver extract; format: biochemical; settings: Assay 1, chicken liver extracts
Experimental: as §5

SMILES: CCC(=O)CCCCC[C@@H]1NC(=O)[C@H]2CCCCN2C(=O)[C@H]([C@@H](C)CC)NC(=O)[C@H](Cc2cn(OC)c3ccccc23)NC1=O [apicidin, Apicidin]
- Hyperacetylation of P. falciparum histones (P. falciparum histones): cause hyperacetylation
- Hyperacetylation of HeLa cell histones (shift in histone gel profile) (HeLa cell histones): cause a distinct shift in the histone gel profiles

SMILES: C[C@@H]1NC(=O)[C@H]2CCCN2C(=O)[C@H](CCCCCC(=O)[C@@H]2CO2)NC(=O)[C@@H](C)NC1=O [HC-toxin]
- Hyperacetylation of HeLa cell histones (shift in histone gel profile) (HeLa cell histones): cause a distinct shift in the histone gel profiles

SMILES: CC(/C=C/C(=O)NO)=C\[C@@H](C)C(=O)c1ccc(N(C)C)cc1 [trichostatin]
- Hyperacetylation of P. falciparum histones (P. falciparum histones): cause hyperacetylation
- Hyperacetylation of HeLa cell histones (shift in histone gel profile) (HeLa cell histones): cause a distinct shift in the histone gel profiles

SMILES: CC(/C=C/C(=O)O)=C\[C@@H](C)C(=O)c1ccc(N(C)C)cc1 [trichostatic acid]
- pIC50 [1]: < 6.00
- IC50 in binding assay, E. tenella lysate [1]: no activity
- IC50 against P. falciparum (P. falciparum): not active
- IC50 in binding assay, chicken liver lysate [2]: no activity
- minimum inhibitory concentration against E. tenella (E. tenella): not active
- IC50 in enzyme inhibition assay, E. tenella extract [3]: inactive
- IC50 in enzyme inhibition assay, chicken liver extract [4]: inactive
